Assay results reported in ChEMBL document CHEMBL5338805, “Discovery of the First Subnanomolar PPARα/δ Dual Agonist for the Treatment of Cholestatic Liver Diseases” (J Med Chem, 2023).

Legend:
Type in all cases: cell-based
[1] = target: T1, Peroxisome proliferator-activated receptor alpha (Homo sapiens, UniProt Q07869); assay: Agonist activity at human PPARalpha transfected in african green monkey COS7 cells assessed transactivation incubated for 16 hrs by luciferase assay
T1 sequence (Q07869 whole entry): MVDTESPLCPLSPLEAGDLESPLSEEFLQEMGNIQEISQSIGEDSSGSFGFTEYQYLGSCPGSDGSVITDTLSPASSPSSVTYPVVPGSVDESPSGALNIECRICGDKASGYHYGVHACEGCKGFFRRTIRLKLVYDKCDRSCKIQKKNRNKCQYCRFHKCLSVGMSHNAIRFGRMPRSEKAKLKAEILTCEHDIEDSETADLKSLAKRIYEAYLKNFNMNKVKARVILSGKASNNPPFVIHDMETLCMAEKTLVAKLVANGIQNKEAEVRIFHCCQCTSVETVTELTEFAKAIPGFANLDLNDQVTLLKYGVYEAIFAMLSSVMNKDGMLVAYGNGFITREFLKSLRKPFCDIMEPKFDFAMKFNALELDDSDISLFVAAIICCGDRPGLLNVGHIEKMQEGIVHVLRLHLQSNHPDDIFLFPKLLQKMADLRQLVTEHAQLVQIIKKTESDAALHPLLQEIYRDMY

[2] = target: T2, Peroxisome proliferator-activated receptor gamma (Homo sapiens, UniProt P37231); assay: Agonist activity at human PPARgamma transfected in african green monkey COS7 cells assessed transactivation incubated for 16 hrs by luciferase assay
T2 sequence (P37231 whole entry): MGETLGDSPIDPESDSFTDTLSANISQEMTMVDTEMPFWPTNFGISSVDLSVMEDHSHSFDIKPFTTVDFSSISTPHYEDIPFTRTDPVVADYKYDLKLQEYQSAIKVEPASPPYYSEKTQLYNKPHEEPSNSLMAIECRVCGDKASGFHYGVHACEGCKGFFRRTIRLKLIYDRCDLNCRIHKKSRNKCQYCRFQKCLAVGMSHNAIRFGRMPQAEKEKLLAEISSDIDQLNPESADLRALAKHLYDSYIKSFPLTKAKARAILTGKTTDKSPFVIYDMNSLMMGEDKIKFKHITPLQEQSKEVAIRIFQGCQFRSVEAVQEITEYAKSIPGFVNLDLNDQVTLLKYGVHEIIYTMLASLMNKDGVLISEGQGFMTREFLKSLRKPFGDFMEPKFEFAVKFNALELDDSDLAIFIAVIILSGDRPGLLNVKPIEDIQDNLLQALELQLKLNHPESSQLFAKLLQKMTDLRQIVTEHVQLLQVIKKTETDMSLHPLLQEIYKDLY

[3] = target: Peroxisome proliferator-activated receptor delta (Homo sapiens, UniProt Q03181); assay: Agonist activity at human PPARdelta transfected in african green monkey COS7 cells assessed transactivation incubated for 16 hrs by luciferase assay
Chain of Peroxisome proliferator-activated receptor delta (Q03181 whole entry): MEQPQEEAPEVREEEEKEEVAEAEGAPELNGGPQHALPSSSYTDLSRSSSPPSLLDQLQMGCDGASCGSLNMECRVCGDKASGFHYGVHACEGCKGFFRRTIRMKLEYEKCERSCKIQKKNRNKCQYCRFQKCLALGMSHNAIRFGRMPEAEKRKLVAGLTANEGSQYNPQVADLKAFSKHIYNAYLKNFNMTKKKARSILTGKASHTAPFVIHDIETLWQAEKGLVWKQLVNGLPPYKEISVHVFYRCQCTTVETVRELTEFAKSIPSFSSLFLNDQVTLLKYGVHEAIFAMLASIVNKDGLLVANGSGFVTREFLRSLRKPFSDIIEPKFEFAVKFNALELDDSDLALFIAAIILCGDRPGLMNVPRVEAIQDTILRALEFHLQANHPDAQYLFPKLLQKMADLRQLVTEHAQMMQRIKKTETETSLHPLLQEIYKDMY

SMILES | EC50 [1] | EC50 [2] | EC50 [3]
Cc1cc(Cn2ncn(-c3ccc(OC(F)(F)F)cc3)c2=O)cc(C)c1OC(C)(C)C(=O)O | 0.0074 µM |  | 
Cc1cc(N2C(=O)CN(c3ccc(C(F)(F)F)cc3)C2=O)cc(C)c1OC(C)(C)C(=O)O |  | > 5 µM | 
Cc1cc(CN2C(=O)CN(c3ccc(OC(F)(F)F)cc3)C2=O)cc(C)c1OC(C)(C)C(=O)O |  | 1.39 µM | 
Cc1cc(CN2C(=O)CN(c3ccc(C(F)(F)F)cc3)C2=O)cc(C)c1OC(C)C(=O)O (stereo unspecified) |  | > 5 µM | 0.0084 µM
Cc1cc(CN2C(=O)CN(c3ccccc3C(F)(F)F)C2=O)cc(C)c1OC(C)(C)C(=O)O | > 5 µM | > 5 µM | 
CSc1ccc(N2CC(=O)N(Cc3cc(C)c(OC(C)(C)C(=O)O)c(C)c3)C2=O)cc1 | 0.0027 µM | 1.17 µM | 0.0082 µM
Cc1cc(CCN2C(=O)CN(c3ccc(C(F)(F)F)cc3)C2=O)cc(C)c1OC(C)(C)C(=O)O |  | 0.277 µM | 
